In patent US20040142899A1, “Compositions and methods for enhanced biostability and altered biodistribution of oligonucleotides in mammals” (ISIS Pharmaceuticals, Inc., priority 1990, published 2004):

Legend:
RNA = assay: Tm change due to pyrene conjugation, against RNA; format: binding; conditions: 100 mM Na+, 10 nM phosphate, 0.1 mM EDTA, pH 7, 4 μM strand concentration
Protocol: (§1) Changes in Tm due to pyrene conjugation were evaluated against both DNA and RNA. Tm was measured in 100 mM Na^+, 10 nM phosphate, 0.1 mM EDTA, pH 7 at 4 μM strand concentration.

DNA = assay: Tm change due to pyrene conjugation, against DNA; format: binding; conditions: 100 mM Na+, 10 nM phosphate, 0.1 mM EDTA, pH 7, 4 μM strand concentration
Protocol: as §1

## 5′-GCG-TGU*-CTG-CG (5'-GCG-TGU*-CTG-CG; 2'-O-aminohexyl uridine linker, as printed in the source, key not given here) [Oligomer 52, U* from 2′-O-[hexyl-(Ω-N-phthalimido)amino]uridine amidite; amino linker]
RNA
  Tm v. RNA: 55.5 °C
DNA
  Tm v. DNA: 50.9 °C
